Data reported in PubChem BioAssay (NCI).
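Growth conditions: 96-well plates. Treatment: test compound, 48 hours, 5 concentrations. Analysis: linear interpolation between bracketing concentrations; unreached endpoints set to highest concentration. The concentration for full growth arrest is given as TGI.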

Assays:
Experiment in all cases: NCI tumour cell line growth inhibition, 48 h
[1] = test system: SF-295 CNS
[2] = test system: RXF 393 renal
[3] = test system: SNB-75 CNS
[4] = test system: OVCAR-5 ovarian
[5] = test system: PC-3 prostate
[6] = test system: NCI-H226 lung
[7] = test system: OVCAR-4 ovarian
[8] = test system: IGROV1 ovarian
[9] = test system: 786-0 renal
[10] = test system: T-47D breast
[11] = test system: HOP-62 NSCLC
[12] = test system: RPMI-8226 leukemia
[13] = test system: CCRF-CEM leukemia
[14] = test system: A498 renal
[15] = test system: NCI-H23 lung
[16] = test system: LOX IMVI melanoma
[17] = test system: MDA-N
[18] = test system: K-562 leukemia
[19] = test system: NCI-H522 lung
[20] = test system: HCC-2998 colon
[21] = test system: HCT-15 colon
[22] = test system: ACHN renal
[23] = test system: TK-10 renal
[24] = test system: U251 CNS
[25] = test system: HT29 colon
[26] = test system: SK-MEL-5 melanoma
[27] = test system: MDA-MB-231 breast
[28] = test system: SR leukemia
[29] = test system: UACC-257 melanoma
[30] = test system: UO-31 renal
[31] = test system: UACC-62 melanoma
[32] = test system: SK-MEL-28 melanoma
[33] = test system: MDA-MB-435
[34] = test system: DU-145 prostate
[35] = test system: NCI-H460 lung
[36] = test system: SNB-19 CNS
[37] = test system: HCT-116 colon
[38] = test system: OVCAR-8 ovarian
[39] = test system: A549 NSCLC
[40] = test system: SK-MEL-2 melanoma
[41] = test system: M14 melanoma
[42] = test system: CAKI-1 renal
[43] = test system: EKVX NSCLC
[44] = test system: SN12C renal
[45] = test system: HS 578T breast
[46] = test system: SF-268 CNS
[47] = test system: SW-620 colon
[48] = test system: HOP-92 NSCLC
[49] = test system: HL-60(TB) leukemia
[50] = test system: NCI/ADR-RES ovarian
[51] = test system: MALME-3M melanoma
[52] = test system: COLO 205 colon
[53] = test system: SF-539 CNS
[54] = test system: KM12 colon
[55] = test system: BT-549 breast
[56] = test system: OVCAR-3 ovarian
[57] = test system: MOLT-4 leukemia
[58] = test system: SK-OV-3 ovarian
[59] = test system: MCF7 breast

## O=C(N/N=C\c1ccccc1)Nc1cccc2ccccc12
[1]
  TGI: 77.1 µM
[2]
  TGI: > 100 µM
[3]
  TGI: > 100 µM
[4]
  TGI: > 100 µM
[5]
  TGI: 86.5 µM
[6]
  TGI: 83.6 µM
[7]
  TGI: > 100 µM
[8]
  TGI: > 100 µM
[9]
  TGI: 30.1 µM
[10]
  TGI: 48.2 µM
[11]
  TGI: 37.2 µM
[12]
  TGI: > 100 µM
[13]
  TGI: > 100 µM
[14]
  TGI: 88.9 µM
[15]
  TGI: > 100 µM
[16]
  TGI: > 100 µM
[17]
  TGI: > 100 µM
[18]
  TGI: > 100 µM
[19]
  TGI: > 100 µM
[20]
  TGI: > 100 µM
[21]
  TGI: > 100 µM
[22]
  TGI: 39 µM
[23]
  TGI: > 100 µM
[24]
  TGI: > 100 µM
[25]
  TGI: 69.9 µM
[26]
  TGI: 24.4 µM
[27]
  TGI: > 100 µM
[28]
  TGI: > 100 µM
[29]
  TGI: > 100 µM
[30]
  TGI: > 100 µM
[31]
  TGI: > 100 µM
[32]
  TGI: 51.5 µM
[33]
  TGI: > 100 µM
[34]
  TGI: > 100 µM
[35]
  TGI: > 100 µM
[36]
  TGI: > 100 µM
[37]
  TGI: > 100 µM
[38]
  TGI: > 100 µM
[39]
  TGI: > 100 µM
[40]
  TGI: 95.3 µM
[41]
  TGI: 49.1 µM
[42]
  TGI: > 100 µM
[43]
  TGI: > 100 µM
[44]
  TGI: 45.9 µM
[45]
  TGI: 66.7 µM
[46]
  TGI: > 100 µM
[47]
  TGI: > 100 µM
[48]
  TGI: > 100 µM
[49]
  TGI: > 100 µM
[50]
  TGI: > 100 µM
[51]
  TGI: > 100 µM
[52]
  TGI: > 100 µM
[53]
  TGI: > 100 µM
[54]
  TGI: > 100 µM
[55]
  TGI: 98.3 µM
[56]
  TGI: > 100 µM
[57]
  TGI: > 100 µM

## CC(=O)/C=C(\O)c1[nH]c(C(=O)O)cc1C1CCN(Cc2ccccc2)C1=O (centres undefined)
[1]
  TGI: 48.7 µM
[2]
  TGI: 30.2 µM
[3]
  TGI: 63.1 µM
[4]
  TGI: 80.2 µM
[5]
  TGI: > 100 µM
[7]
  TGI: > 100 µM
[8]
  TGI: 61.5 µM
[9]
  TGI: 47.6 µM
[10]
  TGI: 49.8 µM
[11]
  TGI: 32.8 µM
[12]
  TGI: 49 µM
[58]
  TGI: 57.7 µM
[14]
  TGI: > 100 µM
[15]
  TGI: 35.3 µM
[17]
  TGI: 33.8 µM
[18]
  TGI: 95.1 µM
[19]
  TGI: 49.7 µM
[20]
  TGI: 46.4 µM
[21]
  TGI: 38.4 µM
[22]
  TGI: > 100 µM
[23]
  TGI: > 100 µM
[24]
  TGI: > 100 µM
[25]
  TGI: 89 µM
[26]
  TGI: 42.9 µM
[27]
  TGI: > 100 µM
[29]
  TGI: 53.7 µM
[30]
  TGI: 38.5 µM
[31]
  TGI: 41.7 µM
[32]
  TGI: 43.8 µM
[33]
  TGI: > 100 µM
[34]
  TGI: 59.2 µM
[35]
  TGI: 32.3 µM
[36]
  TGI: 83.5 µM
[37]
  TGI: 61.7 µM
[38]
  TGI: 36.4 µM
[39]
  TGI: 81.4 µM
[40]
  TGI: 54.9 µM
[41]
  TGI: 29.6 µM
[42]
  TGI: > 100 µM
[43]
  TGI: 60.6 µM
[45]
  TGI: > 100 µM
[46]
  TGI: 49.5 µM
[47]
  TGI: > 100 µM
[48]
  TGI: 58.8 µM
[50]
  TGI: 28.9 µM
[51]
  TGI: 46.3 µM
[52]
  TGI: 42.9 µM
[54]
  TGI: > 100 µM
[55]
  TGI: 58.1 µM
[56]
  TGI: 54.9 µM
[57]
  TGI: 53.9 µM
[59]
  TGI: 65.7 µM
